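All cell lines were grown in 96-well plates and treated with compound for 48 hours. TGI: total growth inhibition.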
Assays:
Test in all cases: NCI-60 cell line screen, 48 h
[1] = test system: DMS 273 small cell lung
[2] = test system: RXF-631 renal
[3] = test system: M19-MEL melanoma
[4] = test system: HOP-18 NSCLC

| SMILES | TGI [1] [µM] | TGI [2] [µM] | TGI [3] [µM] | TGI [4] [µM] |
| --- | --- | --- | --- | --- |
| COc1ccc2c(c1)C=C(C(C)(C)C)NS2(=O)=O | > 100 | > 100 | > 100 | > 100 |
| COc1ccc(NS(=O)(=O)c2ccc(N=C3C=C(Nc4ccc(S(=O)(=O)Nc5ccc(OC)nn5)cc4)C(=O)c4ccccc43)cc2)nn1 | 28.4 |  | 30.6 | 29.7 |
| COc1ccc2c(c1)c(=O)c1c(NCCCN(C)C)ccc3ncn2c31 | 15.5 |  | 24.8 | 28.6 |
| CCCCC(N)CSSCC(N)CCCC (stereo not drawn) | 45.6 |  | 56.9 | > 100 |
